The source of these data is patent US6531582B1, “2-O-(9z,12z-octadecadienoyl)-3-O-[α-D-galactopyranosyl-(1″-6′)-O-α-D-galactopyranosyl]glycerol and pharmaceutical composition containing the same” (priority 2000, dated 2003).

One assay deals with edema of arthritis. Kind of assay: Inhibitory effect on edema of arthritis (Zymosan-A/Freund's adjuvant induced paw edema). In kind it is in vivo. Particulars: albino rats; for inhibitory effect on edema: test for edema induction. On the procedure: In order to observe the inhibitory effect on edema of the pharmaceutical composition of the present invention, 6 albino rats weighing 200 g were used per test group to induce edema by injecting the mixture of 0.5 ml of Zymosan-A (20 mg/ml/kg) and 0.5 ml of Freund's adjuvant into ST36 position of left paw and then observed for the progress of edema for 70 days by taking a photograph before and after induction of edema. The water extract and organic solvent fractions of the pharmaceutical composition of the present invention were respectively constituted in the concentration of 0.6 mg/ml and then orally administered for 14 days to albino rats in an amount of 1 ml per kg of body weight once a day to determine the inhibitory effect on edema. As the test sample, the organic solvent fractions of the pharmaceutical composition including ABE, ABB, ABW, CBE, CBB, CBW, LNE, LNB, LNW, CRB, CRW, SSH and SSW were respectively used. As the result of this test, it was observed that edema was started to induce on day 4 and reached the peak point after about 45 days. The period for this test was established as 70 days after edema induction to observe the inhibitory effect on edema of the extracts of the present invention. As the result, the edema size was measured using a precision gauge.
The inihibitory effect on edema of the compound according to the present invention as measured after 70 days have passed are listed in the following Tables 2 and 3 and FIG. 4.

The test system of assay [1] is CAM formation induced by synovial cells. Kind of assay: Angiogenesis of synovial cells in chorioallantoic membrane (CAM) of fertilized egg. Particulars: 10 μg/ml on CAM, synovial cells injected, compared to control group. In kind it is in vivo. The protocol: In order to determine the effect of the organic solvent fractions on the angionenesis of synovial cells using the cells separated in Experiment 2, synovial cells were injected into fertilized egg and then incubated in an incubator at 37° C. for 3 days to observe the formation of chorioallantoic membrane (CAM). In the present state, the fractions separated according to the above method were respectively distributed on CAM at the concentration of 10 μg/ml to observe the degree of CAM decrease.

In assay [2] the test system is NO formation in RAW 264.7 cell lines. Kind of assay: NO formation in macrophage cells stimulated by lipid polysaccharide (Greiss reagent). In kind it is cell-based. Particulars: 10 μg/ml, LPS-stimulated RAW 264.7. On the procedure: FIG. 7 is (a) a bar graph showing the inhibition of NO formation when Raw 264.7 cell lines are treated with the organic solvent fraction of a single drug of the pharmaceutical composition at the concentration of 10 μg/ml for 24 hours an then stimulated with LPS, and (b) a bar graph showing the inhibition of NO formation when the cell lines treated with CBB fraction and LNE fraction as the organic solvent fractions are stimulated with LPS according to the same manner as above (a).
In order to identify whether the extracts obtained according to the present invention can inhibit the synthesis of nitric oxide (NO) as the potent inducer of inflammation in blood due to edema as above, macrophage RAW 264.7 cell lines were distributed in a 96-well microplate at the concentration of 10^3 cells per well and then incubated for 12 hours. Then, lipid polysaccharide was added to the plate at the concentration of 50 ng/well to stimulate the cells for 2 hours. The respective organic solvent fractions were added to the plate to the final concentration of 10 μg/ml followed by addition of 50 μl of Greiss reagent solution, and then allowed to react together at room temperature. Then, the absorbance of the plate was measured at 540 nm of ELISA (enzyme-linked immunosorbent assay) reader. […]

In assay [3] the test system is Raw 264.7 cell lines. Kind of assay: Induction of apoptosis of macrophages. In kind it is cell-based. The conditions noted are these: Raw 264.7, 24 hours, microscopy. On the procedure: (§1) In order to determine whether the compound identified as the effective component of the pharmaceutical composition separated according to the present invention can induce the apoptosis of Raw 264.7 cell lines as macrophage involved in inflammatory reaction and synovial cells, the cells were distributed on 5% DMEM medium supplemented with penicillin/streptomycin in a 6-well culture dish at the concentration of 10^4 cells and then incubated at 37° C. for 24 hours while adding the extractions as above at the concentration of 10 μg/ml to observe the reaction. Apoptosis was examined by taking a photograph of apoptosis-induced cells under a polarizing microscope of 200 magnifications.

The test system of the next assay is synovial cells. Kind of assay: Induction of apoptosis of synovial cell lines. In kind it is cell-based, human. Particulars: 24 hours, microscopy. On the procedure: The synovial cells separated from outpatients suffering from rheumatoid arthritis were distributed on 5% DMEM medium supplemented with penicillin/streptomycin in a 6-well culture dish at the concentration of 10^4 cells and then incubated for 24 hours at 37° C. to observe the surviving cells. In order to determine the presence or absence of cells and the proliferating state of cells, apoptosis-induced cells were examined by taking their photographs under a phase-contrast microscope of 200 magnifications.
as §1

Assay [4] concerns Raw 264.7 cell lines. Kind of assay: Effect on cell cycle of macrophage cells (flow cytometry). Format: cell-based. Particulars: Raw 264.7, LPS-stimulated, 20 μg/ml. The protocol:
(§2) Two kinds of cells were incubated as in Experiment 6 and then washed with PBS (phosphate-buffered saline). LPS was distributed on the respective dishes at the concentration of 50 μg/ml to stimulate the cells. Then, the extract according to the present invention was added over 2 hours so as to make the final concentration of 20 μg/ml. The supernatant was removed, washed with PBS and then treated with trypsin. The cells were harvested, introduced into Eppendorf tube and then centrifuged at 1,000 rpm for 5 minutes to remove the supernatant. The residue was fixed with addition of 1 ml of 100% ethanol. At this time, the mixture of 5 μg/ml propidium iodide and RNAse was separately prepared. The fixed cells were centrifuged to remove the supernatant and then washed once with PBS. Simultaneously, the staining agent as previously prepared above was added to the fixed cells and then warmed in an incubator at 37° C. for 30 minutes. The cells stained with propidium iodide was sealed with foil, stored at 4° C. and then subjected to a flow cytometry analysis using FACscan (Becton Dickinson, Calif.) as the analyzing apparatus.

In the next assay the test system is synovial cell lines. Kind of assay: Effect on cell cycle of synovial cell lines (flow cytometry). The conditions noted are these: LPS-stimulated, 20 μg/ml. In kind it is cell-based, human. On the procedure:
as §2

For the next assay, the system named is iNOS. Kind of assay: Inhibition of iNOS expression at the level of transcription through RT-PCR. Format: cell-based, human. The conditions noted are these: FIG. 12a, lanes 1-8; 50 μg/ml, LPS-stimulated. The protocol:
(§3) In order to identify the ingredient having an inhibitory activity against COX-II and inducible nitric oxide synthetase (iNOS) as the causal factors of rheumatoid arthritis in the extract used as the effective component of the pharmaceutical composition according to the present invention as in Experiment 7 above, the cells were distributed in T75 flask at the concentration of 10^5 cells, incubated for 7 days and then stimulated for 2 hours by introducing LPS in the flask at the concentration of 50 ng/ml. Then, the extract of the present invention was added so as to make the final concentration of 50 μg/ml. The cells were harvested into a 1.5 ml Eppendorf tube and centrifuged with 15,000 rpm at 4° C. for 15 minutes to remove the supernatant. 200 μl of RNAzol solution was added to the residue followed by addition of 50 μl of chloroform. The cells were lysed by careful pippeting, and then centrifuged with 15,000 rpm at 4° C. for 15 minutes to recover a total RNA, which was then precipitated at 4° C. for 15 minutes by adding the same volume of isopropanol, washed once with 75% ethanol and then dried. The cell lysate was dissolved by adding 20 μl of RNase free D2O and then warming the mixture at 60° C. for 30 minutes. […]

Another assay deals with COX-II. Kind of assay: Inhibition of COX-II expression at the level of transcription through RT-PCR. Format: cell-based, human. The protocol: as §3
In assay [5] the test system is cartilage and bone of arthritic joint. Kind of assay: Joint rupture in edema-inhibited albino rats by X-ray analysis. In kind it is in vivo. Particulars: edema-induced albino rats, oral, about 70 days. On the procedure:
FIG. 13 is X-ray photograph to show the 70-days inhibitory effect on edema as one of chronic and degenerative osteopathological symptoms of arthritis by treating the induced edema with respective fractions obtained as the organic solvent fractions of the pharmaceutical composition in an amount of 75 μg/ml for 2 weeks via oral route.
The respective water extract and organic solvent fractions were orally administered for 14 days at the concentration of 75 μg/ml to investigate their inhibitory effect on edema as in Experiment 1. The test albino rats were anesthetized to take X-ray photograph.

Assay [6] concerns nogo-A expressed U-373 MG glioblastoma cell line. Kind of assay: Therapeutic effect on vertebral neuroparalysis (neurite regeneration in nogo-A expressing cells). Format: cell-based. Particulars: nogo-A expressed U-373 cell lines, phase-contrast microscopy. The source says: Simultaneously, it was also observed whether neurites can be regenerated by treatment with neuronal growth factor (NGF) or whether the fractions of the present invention can provide the same effect, by taking a photograph with a phase-contrast microscope of 200 magnifications.

Assay [7] is described as follows: Effect of the compounds separated from Cibotii rhizoma on arthritis. Particulars: summary statement.
The next assay deals with smooth muscle. The conditions noted are these: cited from earlier work.

“Also recorded” adds a separate entry of the source.

With “2-O-(9z,12z-octadecadienyl)-3-O-[α-galactopyranosyl-(1″-6′)-O-α-D-galactopyranosyl]glycerol [CBB-13]”, the “edema size, Before treatment” value in the assay with edema of arthritis (Table 3 (unit not given), oral, baseline before treatment, in mm) was 14.4 ± 2. For the same compound, the “edema size, After treatment” value with edema of arthritis (Table 3 (unit not given), oral, measured after 70 days, in mm) is 2.5 ± 1. Further, the “inhibitory effect on edema” value in the assay on edema of arthritis is “potent inhibitory effect on edema; also recorded: most significant”. Further, in assay [1], the “inhibition of induction of CAM formation” value was “more strongly inhibited the induction of CAM formation”. In addition, in assay [2], the “inhibition of NO formation” value is reported as “stronger inhibitory effect on NO formation”. Moreover, the induction of apoptosis entry in the assay on Raw 264.7 cell lines [3] and in the assay on synovial cells was “more strongly inducing the apoptosis” each time. The “effect on cell cycle” value in the assay on Raw 264.7 cell lines [4] is on record as “induced the apoptosis”; in the assay on synovial cell lines, “pattern of G0/G1 arrest”. Further, in the assay with iNOS, the “effect on iNOS expression (RT-PCR, band near 278 bp)” value was “have an effect on the protein expression”. Besides, the “effect on COX-II expression (RT-PCR)” value in the assay on COX-II (FIG. 12a, lanes 1-8, 50 μg/ml, LPS-stimulated) is reported as “inhibitory effect at the level of transcription”; in the assay on COX-II (FIG. 12c, respective fractions), “strongly inhibit the protein expression”. The “osteogenesis (X-ray)” value in [5] was “effect of stimulating the osteogenesis”. In addition, in assay [5], the “rupture of cartilage in arthritic portion (X-ray)” value is recorded as “inhibits the rupture of cartilage in arthritic portion”. For the same compound, in assay [6], the regeneration of neurites result is “neurites were lengthened”. Besides, the “pharmacological effect on arthritis” value in assay [7] is on record as “most excellent pharmacological effect”.

For the compound `CC[C@H](CC[C@@H](C)[C@H]1CC[C@H]2[C@@H]3CC=C4C[C@@H](O[C@@H]5O[C@H](CO)[C@@H](O)[C@H](O)[C@H]5O)CC[C@]4(C)[C@H]3CC[C@]12C)C(C)C` [CBB-12, daucosterol], in the assay on edema of arthritis, the “inhibitory effect on edema” value is “potent inhibitory effect on edema”.

`Cc1c(O)c2c(c(C)c1CCO)C(=O)C(C)(C)C2` [CBB-11, onitin]: in assay [7], the “pharmacological effect on arthritis” value was “moderate pharmacological effect”. Further, the “activity for relaxing smooth muscle” value with smooth muscle was “activity for relaxing smooth muscle”.
